Source: patent US10266497B2 (ABIDE THERAPEUTICS, INC., priority 2017, dated 2019)
pIC50: −log10 of the molar value. Like-named read-outs stand apart in the source and are kept apart here.

What was measured:
FAAH [1] = target: T1, FAAH (Mus musculus, UniProt O08914); experiment: Mouse brain proteomes from inhibitor treated mice (oral gavage, sacrificed 4 h after administration), FAAH; format: in vivo; set-up: mouse brain membrane fraction for mouse assays; from tissue; host or cells: mouse brain (membrane fraction in vitro; brain proteomes of treated C57Bl/6J mice in vivo); conditions: 5 mg/kg oral gavage, brain proteome 4 h after administration, read-out: FAAH % inh. 5 mg/kg (mouse)
T1 sequence (O08914 1-579): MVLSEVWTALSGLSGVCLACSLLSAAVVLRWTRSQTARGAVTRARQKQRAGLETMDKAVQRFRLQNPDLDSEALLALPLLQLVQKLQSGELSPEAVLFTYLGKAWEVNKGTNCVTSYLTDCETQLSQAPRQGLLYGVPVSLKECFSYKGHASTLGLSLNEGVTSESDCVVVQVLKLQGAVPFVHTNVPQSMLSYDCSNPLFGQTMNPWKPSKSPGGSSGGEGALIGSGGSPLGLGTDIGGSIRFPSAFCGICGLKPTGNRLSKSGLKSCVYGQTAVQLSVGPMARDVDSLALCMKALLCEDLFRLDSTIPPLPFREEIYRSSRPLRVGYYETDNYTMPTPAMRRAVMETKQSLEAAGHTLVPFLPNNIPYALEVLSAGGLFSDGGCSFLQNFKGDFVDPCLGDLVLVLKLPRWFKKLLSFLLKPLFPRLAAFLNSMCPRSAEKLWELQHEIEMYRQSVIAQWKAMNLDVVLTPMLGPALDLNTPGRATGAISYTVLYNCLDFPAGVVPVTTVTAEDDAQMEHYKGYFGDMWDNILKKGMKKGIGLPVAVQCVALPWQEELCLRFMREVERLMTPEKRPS

MAGL [2] = target: T2, MAGL (Homo sapiens, UniProt Q99685); experiment: In vitro competitive activity-based protein profiling, MAGL, human; conditions: read-out: MAGL % inh. 1 μM (human)
T2 sequence (Q99685 1-303): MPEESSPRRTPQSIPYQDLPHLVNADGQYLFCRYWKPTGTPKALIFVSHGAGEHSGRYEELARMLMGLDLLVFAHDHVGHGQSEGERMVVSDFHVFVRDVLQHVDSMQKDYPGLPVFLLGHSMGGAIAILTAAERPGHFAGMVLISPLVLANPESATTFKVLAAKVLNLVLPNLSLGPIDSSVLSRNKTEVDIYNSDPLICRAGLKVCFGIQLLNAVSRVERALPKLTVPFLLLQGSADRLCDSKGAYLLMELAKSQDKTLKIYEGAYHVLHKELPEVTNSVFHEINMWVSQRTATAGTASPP

MAGL [3] = target: T3, MAGL (Mus musculus, UniProt O35678); experiment: In vitro competitive activity-based protein profiling, MAGL, mouse; conditions: read-out: MAGL % inh. 1 μM (mouse)
T3 sequence (O35678 1-303): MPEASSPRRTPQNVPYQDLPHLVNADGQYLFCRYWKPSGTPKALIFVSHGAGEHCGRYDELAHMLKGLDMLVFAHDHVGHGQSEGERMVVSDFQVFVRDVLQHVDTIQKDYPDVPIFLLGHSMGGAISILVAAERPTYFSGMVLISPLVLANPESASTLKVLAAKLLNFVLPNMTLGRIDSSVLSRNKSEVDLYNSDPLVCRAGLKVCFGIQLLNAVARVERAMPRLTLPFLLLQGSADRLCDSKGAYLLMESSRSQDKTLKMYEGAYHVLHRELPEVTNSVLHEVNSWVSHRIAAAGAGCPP
Method: (§1) Biological Evaluation In Vitro Competitive Activity-Based Protein Profiling.
(§2) Proteomes (mouse brain membrane fraction for mouse assays; human prefrontal cortex membrane fractions for human assays) (50 mL, 1.0 mg/mL total protein concentration) were preincubated with varying concentrations of inhibitors at 37° C. After 30 min, FP-Rh (1.0 mL, 50 mM in DMSO) was added and the mixture was incubated for another 30 min at 37° C. Reactions were quenched with SDS loading buffer (15 μL—4λ) and run on SDS-PAGE.

FAAH [4] = target: T1, FAAH; experiment: In vitro competitive activity-based protein profiling, FAAH, mouse; conditions: read-out: FAAH % inh. 1 μM (mouse)
MAGL [5] = target: T3, MAGL; experiment: Mouse brain proteomes from inhibitor treated mice (oral gavage, sacrificed 4 h after administration); format: in vivo; set-up: mouse brain membrane fraction for mouse assays; from tissue; host or cells: mouse brain (membrane fraction in vitro; brain proteomes of treated C57Bl/6J mice in vivo); conditions: 5 mg/kg oral gavage, brain proteome 4 h after administration, read-out: MAGL % inh. 5 mg/kg (mouse)
FAAH [6] = target: T4, FAAH (Homo sapiens, UniProt O00519); experiment: In vitro competitive activity-based protein profiling, FAAH, human; conditions: for inhibition at 1 µM: read-out: FAAH % inh. 1 μM (human)
T4 sequence (O00519 1-579): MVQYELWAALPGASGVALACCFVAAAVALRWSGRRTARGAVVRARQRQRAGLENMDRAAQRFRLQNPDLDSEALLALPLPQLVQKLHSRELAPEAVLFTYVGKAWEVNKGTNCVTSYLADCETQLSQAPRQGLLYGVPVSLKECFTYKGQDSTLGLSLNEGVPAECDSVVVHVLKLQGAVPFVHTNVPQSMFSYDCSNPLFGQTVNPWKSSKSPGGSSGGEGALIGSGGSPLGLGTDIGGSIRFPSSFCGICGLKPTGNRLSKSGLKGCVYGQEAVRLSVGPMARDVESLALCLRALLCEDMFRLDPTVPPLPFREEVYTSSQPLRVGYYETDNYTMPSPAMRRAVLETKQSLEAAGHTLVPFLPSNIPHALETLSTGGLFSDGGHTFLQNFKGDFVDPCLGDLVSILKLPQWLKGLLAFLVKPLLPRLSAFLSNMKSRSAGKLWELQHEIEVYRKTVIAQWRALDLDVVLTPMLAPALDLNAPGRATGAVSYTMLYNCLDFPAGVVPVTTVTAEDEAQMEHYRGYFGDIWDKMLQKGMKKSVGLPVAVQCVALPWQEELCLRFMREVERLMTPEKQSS
Method: as §1, §2

FAAH [7] = target: T1, FAAH; experiment: Mouse brain proteomes from inhibitor treated mice (oral gavage, sacrificed 4 h after administration), FAAH; format: in vivo; set-up: mouse brain membrane fraction for mouse assays; from tissue; host or cells: mouse brain (membrane fraction in vitro; brain proteomes of treated C57Bl/6J mice in vivo); conditions: 5 mg/kg oral gavage, C57Bl/6J mice, brain proteome 4 h after administration, read-out: FAAH % inh. 5 mg/kg (mouse)

**Q.** What does the source list for `O=C(O)c1ccn(C(=O)N2CCN(Cc3cccc(Cl)c3N3CC4COCC4C3)CC2)n1` (centres unmarked) [Example 211, 1-(4-(3-chloro-2-(tetrahydro-1H-furo[3,4-c]pyrrol-5(3H)-yl)benzyl)piperazine-1-carbonyl)-1H-pyrazole-3-carboxylic acid]?
**A.** inhibition at 5 mg/kg (FAAH [1]): 0 to 25%; inhibition at 1 µM (MAGL [2]): > 75%; inhibition at 1 µM (MAGL [3]): > 75%; inhibition at 1 µM (FAAH [4]): 0 to 25%; inhibition at 5 mg/kg (MAGL [5]): 0 to 25%; inhibition at 1 µM (FAAH [6]): 0 to 25%

**Q.** How did the inhibition at 5 mg/kg (FAAH [1]) turn out when `O=C(O)c1ccn(C(=O)N2CCN(Cc3cccc(Cl)c3N3C4CCC3COC4)CC2)n1` [Example 212, 1-(4-(2-(3-oxa-8-azabicyclo[3.2.1]octan-8-yl)-3-chlorobenzyl)piper-azine-1-carbonyl)-1H-pyrazole-3-carboxylic acid] was run?
**A.** Its inhibition at 5 mg/kg is 0 to 25%.

**Q.** And the inhibition at 1 µM (MAGL [2])?
**A.** The inhibition at 1 µM was over 75%.

**Q.** And the inhibition at 1 µM (MAGL [3])?
**A.** The inhibition at 1 µM was over 75%.

**Q.** What about the inhibition at 1 µM (FAAH [4]) of the same molecule?
**A.** Its inhibition at 1 µM is 0 to 25%.

**Q.** And the inhibition at 5 mg/kg (MAGL [5])?
**A.** Its inhibition at 5 mg/kg is 0 to 25%.

**Q.** And the inhibition at 1 µM (FAAH [6])?
**A.** Its inhibition at 1 µM is 0 to 25%.

**Q.** Which inhibition at 1 µM (MAGL [3]) does the source give for `O=C(O)c1ccn(C(=O)N2CCN(Cc3cccc(C(F)(F)F)c3N3CCOCC3)CC2)n1` [Example 453, 1-(4-(2-morpholino-3-(trifluoromethyl)benzyl)piperazine-1-carbonyl)-1H-pyrazole-3-carboxylic acid] here?
**A.** The inhibition at 1 µM was over 75%.

**Q.** What about the inhibition at 1 µM (FAAH [4]) of the same molecule?
**A.** The inhibition at 1 µM was 0 to 25%.

**Q.** And the inhibition at 5 mg/kg (MAGL [5]; C57Bl/6J mice)?
**A.** Its inhibition at 5 mg/kg is 0 to 25%.

**Q.** And the pIC50 (FAAH [6])?
**A.** Its pIC50 is 5.00 to 6.00.

**Q.** And the inhibition at 5 mg/kg (FAAH [7])?
**A.** Its inhibition at 5 mg/kg is 0 to 25%.

**Q.** For `O=C(O)c1ccn(C(=O)N2CCN(Cc3ccc(C(F)(F)F)c(N4CC5COCC5C4)c3)CC2)n1` (centres unmarked) [Example 454, 1-(4-(3-(tetrahydro-1H-furo[3,4-c]pyrrol-5(3H)-yl)-4-(trifluoromethyl)benzyl)piperazine-1-carbonyl)-1H-pyrazole-3-carboxylic acid], which inhibition at 1 µM (MAGL [2]) is on record?
**A.** The inhibition at 1 µM was over 75%.

**Q.** What about the inhibition at 1 µM (MAGL [3]) of the same molecule?
**A.** The inhibition at 1 µM was over 75%.

**Q.** What about the inhibition at 1 µM (FAAH [4]) of the same molecule?
**A.** The inhibition at 1 µM was 0 to 25%.

**Q.** What about the inhibition at 5 mg/kg (MAGL [5]; C57Bl/6J mice) of the same molecule?
**A.** Its inhibition at 5 mg/kg is 0 to 25%.

**Q.** What about the inhibition at 1 µM (FAAH [6]) of the same molecule?
**A.** Its inhibition at 1 µM is 0 to 25%.

**Q.** And the inhibition at 5 mg/kg (FAAH [7])?
**A.** Its inhibition at 5 mg/kg is 0 to 25%.

**Q.** Which results are given for `CN(Cc1ccc(C(F)(F)F)cc1N1CCCC1)C1(C)CCN(C(=O)n2ccc(C(=O)O)n2)CC1` [Example 456, 1-(4-methyl-4-(methyl(2-(pyrrolidin-1-yl)-4-(trifluoromethyl)benzyl)amino)piper-idine-1-carbonyl)-1H-pyrazole-3-carboxylic acid]?
**A.** inhibition at 1 µM (MAGL [2]): > 75%; inhibition at 1 µM (MAGL [3]): > 75%; inhibition at 1 µM (FAAH [4]): 0 to 25%; inhibition at 5 mg/kg (MAGL [5]; C57Bl/6J mice): 0 to 25%; inhibition at 1 µM (FAAH [6]): 0 to 25%; inhibition at 5 mg/kg (FAAH [7]): 0 to 25%
